Where two headings read alike, the source gives them in different places.
Assays:
activated MEK = conditions: cited from earlier work; for type of inhibition, comparative kinetic analysis: activated MEK
[1] = system: freshly isolated human monocytes and THP-1 cells
ERK [2] = conditions: PMA/ionomycin, Con A stimulation, antigen with costimulation; cited from earlier work
RAS-transformed cells [3] = system: RAS-transformed cells
SMC = conditions: serum starved SMC
ERK [4] = conditions: fMLP- and LTB4-stimulated
MMP = conditions: IL-1b and TNF-a, fibroblasts; cited from earlier work
b2 integrin = conditions: U0126 at 10 mM
neutrophils [5] = system: neutrophils
T cell = conditions: in response to TCR engagement; cited from earlier work
keratinocytes = keratinocytes stimulated with a variety of agents
neutrophils [6] = conditions: U0126 at 10 mM; in response to IL-8 and LTB4
Cox-2 [7] = system: Cox-2
keratinocyte = conditions: pituitary growth factor extract, primarily FGF
ERK [8] = conditions: agonists fMLP, IL-8, C5a and LTB4; cited from earlier work
SMC (Smooth Muscle Cell) = conditions: at concentrations which inhibit ERK activation; cited from earlier work
RAS-transformed cells [9] = conditions: cited from earlier work
neutrophils [10] = conditions: in response to all agents (fMLP, IL-8, C5a, LTB4); cited from earlier work
T cells = conditions: cited from earlier work
monocytes = conditions: LPS treatment of monocytes; cited from earlier work
UM-SCC-1 and MDA-TV-138 = conditions: controlled by EGF, TGFa and FGF; cited from earlier work
5-lipoxygenase = conditions: HL-60 cells; cited from earlier work
Cox-2 [11] = conditions: RAW 264.7 cells; cited from earlier work
[12] = system: neutrophils, mast cells, or endothelial cells; conditions: opsonized zymosan, aggregation of high affinity IgG receptor, or thrombin, respectively; cited from earlier work
neutrophils [13] = conditions: cited from earlier work
UM-SCC-1 cells = conditions: cited from earlier work
HL-60 cells = conditions: cited from earlier work
Cox-2 [14] = conditions: LPA-stimulated rat mesangial cells; cited from earlier work
Swiss 3T3 cells = conditions: PDGF-stimulated Swiss 3T3 cells; cited from earlier work

In the case of `Cc1ccccc1C(C(C#N)=C(N)Sc1ccccc1N)c1ccc(Cl)cc1` (centres unmarked), the melting point is reported as 63.5 to 72 °C.
In the case of `N#CC(=C(/N)Sc1ccccc1N)/C(C#N)=C(\N)Sc1ccccc1N` [Example U0126], the “type of inhibition, comparative kinetic analysis” value (activated MEK) is given as “non-competitive inhibitors of activated MEK”, the LPS-induced cytokine production [1] is given as “inhibitable” and the “ERK activation in T cells” value (ERK [2]) is given as “prevents ERK activation”. For the same molecule, the “cell growth under normal culture conditions” value (RAS-transformed cells [3]; normal culture conditions) was “minimal effects on cell growth”, the “growth of RAS-transformed cells in soft agar” value (RAS-transformed cells [3]; soft agar) was “impede the growth” and the PDGF-dependent growth (SMC) was “prevents PDGF-dependent growth”. For the same molecule, the “ERK activation in neutrophils” value (ERK [4]) was “blocks ERK activation”, the MMP induction (MMP) was “block MMP induction” and the “blunting of up regulation of b2 integrin on the cell surface” value (b2 integrin) was 50%. For the same molecule, the “growth of human tumor cell lines in soft agar” value (human tumor cell lines) was “can prevent cell growth in some cells, but not all”, the NADPH-oxidase activity (neutrophils [5]) was “does not impair NADPH-oxidase activity” and the bacterial cell killing (neutrophils [5]) was “does not impair”. The IL-2 synthesis (T cell) was “blocked”, the “T cell activation and proliferation” value (T cell) was “blocked” and the arachidonic acid release (keratinocytes) was “block arachidonic acid release”. For the same molecule, the “prostaglandin and leukotriene synthesis” value (keratinocytes) was “block”, the “block of chemotaxis through a fibrin gel” value (neutrophils [6]) was > 80% and the Cox-2 induction (Cox-2 [7]; TPA-stimulated fibroblasts) was “inhibits Cox-2 induction”. The “serum induction of the Cox-2 transcript” value (Cox-2 [7]; fibroblasts, serum) was “does not impede serum induction of the Cox-2 transcript” and the keratinocyte proliferation (keratinocyte) was “blocks keratinocyte proliferation”.
`N#CC(=C(N)Sc1ccc(N)cc1)c1cccc(C(O)c2ccncc2)c1` (centres unmarked) gave a melting point of 146.5 to 147.5 °C.
In the case of `COc1cccc(-c2cc(=O)c3ccccc3o2)c1N` [PD 098059], the “ERK activation in neutrophils” value (ERK [8]) is listed as “blocked”, the “type of inhibition, comparative kinetic analysis” value (activated MEK) is listed as “non-competitive inhibitors of activated MEK” and the MEK activity (activated MEK) is listed as “inhibits MEK activity”. The “PDGF-BB-dependent SMC chemotaxis” value (SMC (Smooth Muscle Cell)) was “prevents PDGF-BB-dependent SMC (Smooth Muscle Cell) chemotaxis”, the “cell growth under normal culture conditions” value (RAS-transformed cells [9]; normal culture conditions) was “minimal effects on cell growth” and the “growth of RAS-transformed cells in soft agar” value (RAS-transformed cells [9]; soft agar) was “impede the growth”. For the same molecule, the neutrophil chemotaxis (neutrophils [10]) was “blocks neutrophil chemotaxis”, the IL-2 production (T cells; anti-CD3 antibody with anti-CD28 or PMA) was “blocked IL-2 production” and the T cell proliferation (T cells; anti-CD3 antibody, reversed by IL-2) was “inhibit T cell proliferation”. For the same molecule, the “production of IL-4, IL-5 and IL-13” value (T cells; similarly stimulated T cell cultures) was “enhanced production”, the “TNFa, IL-3 GM-CSF, IFN-g, IL-6 and IL-10 production” value (T cells; stimulated T cells) was “blocked” and the cytokine production (monocytes) was “blocked”. For the same molecule, the urokinase secretion (UM-SCC-1 and MDA-TV-138) was “reduce urokinase secretion”, the “5-lipoxygenase translocation from cytosol to nuclear membrane and activation (5-HETE production)” value (5-lipoxygenase) was “inhibited” and the “LPS-induced Cox-2 expression” value (Cox-2 [11]) was “partially blocked”. For the same molecule, the arachidonic acid release [12] was “blocks arachidonic acid release”, the superoxide anion production (neutrophils [13]) was “does not alter superoxide anion production” and the cellular proliferation rate (UM-SCC-1 cells) was “not affected”. For the same molecule, the “in vitro invasiveness through an extracellular matrix-coated porous filter” value (UM-SCC-1 cells) was “blocked”, the fMLP-stimulated superoxide generation (HL-60 cells) was “inhibited” and the Cox-2 induction (Cox-2 [14]) was “inhibits Cox-2 induction”. The “thymidine incorporation into DNA” value (Swiss 3T3 cells) was “blocks thymidine incorporation into DNA”.

Source: patent publication US6703420B1, “Amino-thio-acrylonitriles as MEK inhibitors” (Bristol-Myers Squibb Pharma Company, priority 1999, dated 2004)
